Test results reported in publication PMC2811193, “Complementary Roles in Cancer Prevention: Protease Inhibitor Makes the Cancer Preventive Peptide Lunasin Bioavailable” (PLoS ONE, 2010).

What was measured:
[1] = tested on: skin papilloma; settings: applied topically at 250 mg/week; SENCAR mice; cited from earlier work
From the text: […] […] This is consistent with another observation that lunasin slows down epidermal cell proliferation in mouse skin in the absence and presence of DMBA using a ^2H2O label ...

[2] = Lunasin in blood and liver of rats fed LES diet for 4 weeks; type: in vivo; settings: female, Sprague-Dawley, rat, po, 0.25 % of the diet, rats fed dietary LES for 4 weeks
From the text: Sprague-Dawley Rats (Female, 5-weeks old) were purchased from Central Laboratory Animal Inc. (Korea), and experiments were done according with guidelines of the Animal Center at Andong National University (Andong, Korea). Five rats were fed ad libitum with LES and potato starch (0.25% of the diet) for 4 weeks, and then sacrificed. Livers and serum were collected and freeze-dried immediately. One gram of the freeze-dried tissues was extracted with 0.1 M PBS (pH 7.0) (buffer∶tissue ratio (v/w) = 1∶3) at 4°C for 24 hrs, and then centrifuged at 15000 rpm for 1 h. The supernatant protein was further purified by ion exchange chromatography on Biogel resin AG 1-X4 (BioRad), as described by Jeong et al.. Lunasin was further purified by injecting 20 µl of filtrate into the HPLC system equipped with a C18 column (Proteo 90A, Phenomenex Co., Torrance, CA, USA) equilibrated at ambient temperature and an UV detector (295 nm) stabilized with the mobile phase (acetonitrile∶water = 4∶6), at a flow rate of 2.5 ml/min for 15 min. Lunasin was identified by comparison with the retention time of standard synthetic lunasin peak. The lunasin fraction was collected, freeze dried and analyzed by SDS-PAGE and Western-Blot as described above.
Supplementary file pone.0008890.s002.tif: Figure S2 Lunasin was extracted from blood and liver of rats fed control and lunasin-enriched soy (LES) diets for four weeks. […]

[3] = tested on: DMBA-induced NIH3T3 cells; assay: Foci formation assay in DMBA-induced NIH3T3 cells; type: cell-based
Protocol: The foci formation assay was performed according to Reznikoff et al. NIH3T3 cells were obtained from American Type Culture Collection (ATCC) and cultured in RPMI 1640 medium supplemented with 10% fetal bovine serum (FBS) (Invitrogen, Carlsbad, CA, USA). Cells were plated at a density of 500 cells/well in 12-well plates, incubated overnight at 37°C and treated with lunasin or BBI for 4 hrs. Then, cells were treated with 1.5 µg/ml DMBA for 20 hrs. After washing with PBS, fresh medium was added. Peptides were added and medium was changed every week for 6 weeks. At the end of experiment, cells were washed with 0.9% NaCl, fixed with methanol, stained with Giemsa, and scored for transformed foci. The negative control was a set of cells receiving no DMBA, while the positive control consisted of cells induced by DMBA but without treatment.

[4] = tested on: MDA-MB-231 tumor xenografts; assay: Breast cancer prevention in MDA-MB-231 xenograft mouse model; type: in vivo, athymic NCr-nu/nu mice; settings: for tumor incidence (mice showing tumors) / tumor incidence lower compared with the BBI group / tumor incidence lower compared with the control: seven weeks post-cells injection
Protocol: Human MDA-MB-231 breast cancer cells were obtained from ATCC and grown in Leibovitz's L-15 Medium supplemented with 10% FBS, 100 unit/ml penicillin, and 100 µg/ml streptomycin (Invitrogen), in a humidified atmosphere at 37°C.
Mice protocol was approved by ACUC (University of California, Berkeley, CA, USA). Thirty-two six weeks-old athymic NCr-nu/nu mice (National Cancer Institute, Frederick, MD, USA) were acclimatized for 1 week and randomly divided into four groups (n = 8): control group (receiving PBS), BBI-group (receiving BBI at 20 mg/kg body weight), and two lunasin-groups (receiving synthetic lunasin [Chengdu KaiJie Bio-Pharmaceutical Co., Chengdu, P.R. China] at 20 mg/kg body weight and 4 mg/kg body weight). After two months of i.p. treatment three times a week, mice were injected subcutaneously in the right flank with 1×10^7 MDA-MB-231 cells suspended in 0.1 ml of Matrigel Basement Membrane Matrix (Becton Dickinson, Bedford, MA, USA). Tumor growth was monitored by palpation, and the onset when tumors were detectable was noted. Tumor size was measured with calipers, and tumor volume was calculated assuming the shape as ellipsoid. Tumor incidence in percentage was calculated as the number of tumor-bearing mice divided by the total number of mice in each group, whereas tumor generation was calculated as the total number of tumors divided by total number of mice in each group. The volume of the tumor was determined using the following formula: tumor volume = length × width^2 ×0.523 [41].
At the end of the experiment, animals were sacrificed, and tumors were dissected and weighed. Individual tumors were split for fixation in the Shando Glyo-Fixx™ (Thermo Scientific, Pittsburgh, PA, USA) for histological examination. The paraffin-embedded sections were stained with hematoxylin and eosin (H&E).

[5] = 4 mg/kg body weight i.p., n = 8

## CC[C@H](C)[C@H](NC(=O)[C@H](CCCCN)NC(=O)[C@H](CCC(=O)O)NC(=O)[C@H](CCSC)NC(=O)[C@@H](NC(=O)[C@H](Cc1c[nH]cn1)NC(=O)[C@H](CCCCN)NC(=O)[C@H](CCC(=O)O)NC(=O)[C@H](CS)NC(=O)[C@@H]1CCCN1C(=O)[C@@H](NC(=O)[C@H](CC(C)C)NC(=O)[C@H](CC(N)=O)NC(=O)[C@@H](NC(=O)CNC(=O)[C@H](CCC(N)=O)NC(=O)[C@H](CC(C)C)NC(=O)[C@H](CCC(N)=O)NC(=O)[C@H](CCCCN)NC(=O)[C@H](CCCNC(=N)N)NC(=O)[C@H](CS)NC(=O)[C@H](CO)NC(=O)[C@H](CC(=O)O)NC(=O)[C@H](CCC(N)=O)NC(=O)[C@H](CCC(N)=O)NC(=O)[C@H](Cc1c[nH]cn1)NC(=O)[C@H](CCC(N)=O)NC(=O)[C@H](Cc1c[nH]c2ccccc12)NC(=O)[C@H](CCCCN)NC(=O)[C@@H](N)CO)C(C)C)[C@@H](C)O)[C@@H](C)CC)C(=O)N[C@@H](CCC(N)=O)C(=O)NCC(=O)N[C@@H](CCCNC(=N)N)C(=O)NCC(=O)N[C@@H](CC(=O)O)C(=O)N[C@@H](CC(=O)O)C(=O)N[C@@H](CC(=O)O)C(=O)N[C@@H](CC(=O)O)C(=O)N[C@@H](CC(=O)O)C(=O)N[C@@H](CC(=O)O)C(=O)N[C@@H](CC(=O)O)C(=O)N[C@@H](CC(=O)O)C(=O)N[C@@H](CC(=O)O)C(=O)O [lunasin]
[1]
  suppression of skin papilloma formation compared with the control: 70%
[2]; blood, present as a monomer, Western-blot after anion exchange-HPLC purification, read-out: lunasin concentration in blood
  level at 672 h: 17.5 ng/mL
[2]; liver, exists as a dimer, Western-blot, read-out: lunasin concentration in liver
  tissue level at time at 672 h: 3100 ng/g
[3]; 100 nM each
  lunasin more effective than BBI in foci formation inhibition on an equimolar basis: 18%
[3]; 100 nM peptide, 1.5 µg/ml DMBA, 6 weeks, n = 6
  reduction of foci formation: 73%
[3]; 1 µM lunasin extracted from the liver of LES-fed rats, n = 6
  suppression of foci formation: as effectively as an equimolar amount of synthetic lunasin
[4]; 4 mg/kg body weight i.p. three times a week, n = 8
  tumor incidence (mice showing tumors): 50%
[4]; [5]
  decrease of the sizes of tumors (tumor volume) versus control mice: 34%
  tumor generation lower relative to BBI group: 69%
[4]; 4 mg/kg body weight i.p.
  tumor incidence lower compared with the BBI group: 43%
  tumor incidence lower compared with the control: 33%
[4]; 4 mg/kg body weight i.p., total number of tumors / total number of mice, P = 0.029 vs control, n = 8
  tumor generation lower relative to control: 70%
[4]; 20 mg/kg body weight i.p. three times a week, n = 8
  tumor incidence (mice showing tumors): 38%
[4]; 20 mg/kg body weight i.p., n = 8
  decrease of the sizes of tumors (tumor volume) versus control mice: 23%
[4]; 20 mg/kg body weight i.p.
  tumor incidence lower compared with the BBI group: 57%
  tumor incidence lower compared with the control: 49%
[4]; 20 mg/kg body weight i.p., versus vehicle-treated group
  tumor generation: reduced
[4]; both doses of lunasin (20, 4 mg/kg) compared to control-group (P = 0.2134, 0.1880) and BBI-group (P = 0.0909, 0.0569)
  weight of tumors at the end of the experiment: lower
[4]; i.p. three times a week, BBI 20 mg/kg, lunasin 20 and 4 mg/kg body weight, compared among the four groups, n = 8
  body weight: No significant differences
[4]; lunasin 20 and 4 mg/kg i.p.
  appearance of tumors: delay in the appearance of tumors
